Laboratory results: ChEMBL document CHEMBL1124790, “Angiotensin converting enzyme inhibitors. 10. Aryl sulfonamide substituted N-[1-carboxy-3-phenylpropyl]-L-alanyl-L-proline derivatives as novel antihypertensives” (J Med Chem, 1990)
pIC50: −log10 of the molar value. “And” between values parts separate entries of the source, which are not always exact repeats. Equal entries are not always repeated. One block for each compound: values may come before it. The source made the active and inactive calls. No cut-off for these calls is given here.

Legend:
[1] = target: T1, Angiotensin-converting enzyme (Oryctolagus cuniculus) (UniProt P12822); assay: In vivo inhibition of Angiotensin I converting enzyme in rabbit lung after (po) administration of a dose of 10(mg/kg); assay type: organism-based
T1 sequence (whole entry): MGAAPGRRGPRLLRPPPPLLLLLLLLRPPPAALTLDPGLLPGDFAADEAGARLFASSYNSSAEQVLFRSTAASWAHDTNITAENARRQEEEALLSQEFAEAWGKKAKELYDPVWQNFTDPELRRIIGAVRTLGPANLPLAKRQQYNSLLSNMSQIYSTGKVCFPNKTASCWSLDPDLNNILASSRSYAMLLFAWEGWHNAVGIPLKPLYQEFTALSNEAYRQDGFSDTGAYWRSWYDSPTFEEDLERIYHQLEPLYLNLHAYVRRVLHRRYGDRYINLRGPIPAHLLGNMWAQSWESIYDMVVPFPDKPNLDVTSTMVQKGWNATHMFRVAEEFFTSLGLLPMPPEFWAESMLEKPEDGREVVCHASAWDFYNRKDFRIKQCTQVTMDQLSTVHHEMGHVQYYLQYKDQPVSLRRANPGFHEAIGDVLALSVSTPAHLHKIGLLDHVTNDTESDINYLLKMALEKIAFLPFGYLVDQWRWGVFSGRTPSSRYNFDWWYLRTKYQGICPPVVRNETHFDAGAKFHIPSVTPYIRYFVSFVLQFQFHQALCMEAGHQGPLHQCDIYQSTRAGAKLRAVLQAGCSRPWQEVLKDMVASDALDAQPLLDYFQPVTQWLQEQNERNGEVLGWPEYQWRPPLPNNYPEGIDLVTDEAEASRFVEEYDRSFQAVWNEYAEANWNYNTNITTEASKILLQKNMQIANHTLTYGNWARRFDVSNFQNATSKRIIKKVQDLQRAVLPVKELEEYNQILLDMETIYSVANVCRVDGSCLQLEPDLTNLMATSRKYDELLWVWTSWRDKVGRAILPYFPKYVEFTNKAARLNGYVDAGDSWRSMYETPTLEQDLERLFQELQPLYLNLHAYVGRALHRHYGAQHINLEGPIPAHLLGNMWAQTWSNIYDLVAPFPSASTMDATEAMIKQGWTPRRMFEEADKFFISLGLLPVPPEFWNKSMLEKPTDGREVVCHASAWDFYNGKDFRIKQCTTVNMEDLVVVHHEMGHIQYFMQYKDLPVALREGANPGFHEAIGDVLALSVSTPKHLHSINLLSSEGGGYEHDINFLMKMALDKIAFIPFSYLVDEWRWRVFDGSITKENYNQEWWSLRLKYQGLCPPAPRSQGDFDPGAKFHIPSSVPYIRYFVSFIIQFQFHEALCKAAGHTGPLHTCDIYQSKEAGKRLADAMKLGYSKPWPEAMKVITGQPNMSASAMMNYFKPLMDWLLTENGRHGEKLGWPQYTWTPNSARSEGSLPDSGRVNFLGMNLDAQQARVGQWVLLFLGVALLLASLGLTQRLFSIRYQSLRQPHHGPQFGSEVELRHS

[2] = target: T1, Angiotensin-converting enzyme (Oryctolagus cuniculus); assay: Time to inhibit maximum angiotensin I converting enzyme in rabbit lung; assay type: functional, tissue-based
[3] = target: T1, Angiotensin-converting enzyme (Oryctolagus cuniculus); assay: Time during which angiotensin I converting enzyme inhibition is greater than or equa to 30% in rabbit lung; assay type: functional, tissue-based
[4] = target: T2, Angiotensin-converting enzyme (Oryctolagus cuniculus, UniProt P12822); assay: In vitro inhibition of angiotensin I converting enzyme (ACE) in rabbit lung; assay type: tissue-based
T2 sequence (P12822 whole entry): T1 sequence (whole entry)

[5] = target: T1, Angiotensin-converting enzyme (Oryctolagus cuniculus); assay: In vivo inhibition of angiotensin I converting enzyme (ACE) in rabbit lung after (po) administration of a dose of 10(mg/kg); assay type: organism-based
Rattus norvegicus [6] = assay: Percent change in K+ in fasted rats at the dose of 30 mg/kg (ip), 0-5 h; NA=Inactive; assay type: functional, organism-based; design: dose 30 mg/kg
[7] = target: T1, Angiotensin-converting enzyme (Oryctolagus cuniculus); assay: In vivo inhibition of angiotensin I converting enzyme (ACE) in rabbit lung after (iv) administration of a dose of 10(mg/kg); assay type: organism-based
Rattus norvegicus [8] = assay: Percent change in K+ in fasted rats at the dose of 100 mg/kg (po), 0-5 h; assay type: functional
Rattus norvegicus [9] = assay: Percent change in K+ in fasted rats at the dose of 30 mg/kg (iv), 0-5 h; assay type: functional
Rattus norvegicus [10] = assay: Percent change in Na+ in fasted rats at the dose of 30 mg/kg (iv), 0-5 h; assay type: functional
Rattus norvegicus [11] = assay: Percent change in Na+in fasted rats at the dose of 100 mg/kg (po), 0-5 h; assay type: functional
Rattus norvegicus [12] = assay: Percent change in urinary volume in fasted rats at the dose of 100 mg/kg (po), 0-5 h; assay type: functional, Urine
Rattus norvegicus [13] = assay: Percent change in urinary volume in fasted rats at the dose of 30 mg/kg (iv), 0-5 h; assay type: functional, Urine
Rattus norvegicus [14] = assay: Time duration was determined for the actioni (determination of MAP in case of oral administration) in rat; assay type: functional
Rattus norvegicus [15] = assay: Time duration was determined for the actioni (determination of MAP in ip administration) in rat; assay type: functional
Rattus norvegicus [16] = species: Rattus norvegicus; assay: The onset hour was determined in rat; assay type: functional
[17] = target: T1, Angiotensin-converting enzyme (Oryctolagus cuniculus); assay: In vivo inhibition of angiotensin I converting enzyme (ACE) in rabbit lung at the dose of 10(mg/kg), po; assay type: organism-based
Rattus norvegicus [18] = assay: Antihypertensive activity was determined in spontaneously hypertensive rat at a dose of 100 mg/kg(po) administration; assay type: functional; settings: 100 mg/kg
Rattus norvegicus [19] = assay: Percent change in K+ in fasted rats at the dose of 10 mg/kg (iv), 0-5 h; assay type: functional
Rattus norvegicus [20] = assay: Percent change in K+ in fasted rats at the dose of 30 mg/kg (po), 0-5 h; assay type: functional
Rattus norvegicus [21] = assay: Percent change in Na+ in fasted rats at the dose of 10 mg/kg (iv), 0-5 h; assay type: functional
Rattus norvegicus [22] = assay: Percent change in Na+in fasted rats at the dose of 30 mg/kg (po), 0-5 h; assay type: functional
Rattus norvegicus [23] = assay: Percent change in urinary volume in fasted rats at the dose of 10 mg/kg (iv), 0-5 h; assay type: functional, Urine
Rattus norvegicus [24] = assay: Percent change in urinary volume in fasted rats at the dose of 30 mg/kg (po), 0-5 h; assay type: functional, Urine
Rattus norvegicus [25] = assay: Percent change in K+ in fasted rats at the dose of 25 mg/kg (iv), 0-5 h; assay type: functional
Rattus norvegicus [26] = assay: Percent change in K+ in fasted rats at the dose of 25 mg/kg (iv), 5-24 h; assay type: functional
Rattus norvegicus [27] = assay: Percent change in Na+ in fasted rats at the dose of 25 mg/kg (iv), 0-5 h; assay type: functional
Rattus norvegicus [28] = assay: Antihypertensive activity was determined in spontaneously hypertensive rat at a dose of 100 mg/kg(ip) administration; assay type: functional
Rattus norvegicus [29] = assay: Percent change in Na+in fasted rats at the dose of 25 mg/kg (iv), 5-24 h; assay type: functional
Rattus norvegicus [30] = assay: Percent change in urinary volume in fasted rats at the dose of 25 mg/kg (iv), 0-5 h; assay type: functional, Urine
Rattus norvegicus [31] = assay: Percent change in urinary volume in fasted rats at the dose of 25 mg/kg (iv), 5-24 h; assay type: functional, Urine

- inhibition [1]: 74%
SMILES: C[C@H](N[C@@H](CCc1ccccc1)C(=O)O)C(=O)N1CCC[C@H]1C(=O)O

- Time to max. inhibition [2]: 1 h
- Duration [3]: 2.1 h
- pIC50 [4]: 7.07
- inhibition [5]: 54%
SMILES: C[C@H](N[C@@H](CCc1ccccc1)C(=O)O)C(=O)N1CC2(C[C@H]1C(=O)O)Nc1cc(Cl)c(S(N)(=O)=O)cc1S(=O)(=O)N2 (stereo not given in full)
- Change (Rattus norvegicus [6]): inactive

- pIC50 [4]: 7.64
SMILES: C[C@H](N[C@@H](CCc1ccccc1)C(=O)O)C(=O)N1C[C@@H](NS(=O)(=O)c2cc3c(cc2Cl)N=CNS3(=O)=O)C[C@H]1C(=O)O

- Time to max. inhibition [2]: 2.7 h and 3 h
- Duration [3]: > 4 h and 3.7 h
- pIC50 [4]: 7.74
- inhibition [7]: 96%
- inhibition [17]: 37%
SMILES: C[C@H](N[C@@H](CCc1ccccc1)C(=O)O)C(=O)N1CC(N(C)CCC2Nc3cc(Cl)c(S(N)(=O)=O)cc3S(=O)(=O)N2)C[C@H]1C(=O)O.Cl.Cl (stereo not given in full)
- Change (Rattus norvegicus [8]): 40%
- Change (Rattus norvegicus [9]): 0%
- Change (Rattus norvegicus [10]): 0%
- Change (Rattus norvegicus [11]): 36%
- Change (Rattus norvegicus [12]): 0%
- Change (Rattus norvegicus [13]): 0%
- Duration (Rattus norvegicus [14]): >42 h
- Duration (Rattus norvegicus [15]): >24 h
- Onset (Rattus norvegicus [16]): 0.5 h
- Change in MAP (Rattus norvegicus [18]): -20% and -22%

SMILES: NS(=O)(=O)c1cc2c(cc1Cl)N=CNS2(=O)=O [CHLOROTHIAZIDE]
- Change (Rattus norvegicus [19]): 100%
- Change (Rattus norvegicus [20]): 71%
- Change (Rattus norvegicus [21]): 60%
- Change (Rattus norvegicus [22]): 0%
- Change (Rattus norvegicus [23]): 83%
- Change (Rattus norvegicus [24]): 94%

- Time to max. inhibition [2]: 0.3 h
- Duration [3]: 1.25 h
- inhibition [7]: 78%
SMILES: C[C@H](N[C@@H](CCc1ccccc1)C(=O)O)C(=O)N1C[C@@H](NS(=O)(=O)c2cc3c(cc2Cl)NC=NS3(=O)=O)C[C@H]1C(=O)O
- Change (Rattus norvegicus [25]): 40%
- Change (Rattus norvegicus [26]): 67%
- Change (Rattus norvegicus [27]): 0%
- Change in MAP (Rattus norvegicus [28]): -11%
- Change (Rattus norvegicus [29]): 0%
- Change (Rattus norvegicus [30]): 0%
- Change (Rattus norvegicus [31]): 61%
- Duration (Rattus norvegicus [15]): 3 h
- Onset (Rattus norvegicus [16]): <0.25 h
